{"source": "patent US20190038632A1", "about": "(BAYER PHARMA AKTIENGESELLSCHAFT, priority 2016, published 2019)", "tested_on": "NHL patients", "assay": "clinical study A: copanlisib therapy in NHL patients, best response and PFS, also by baseline tumor gene expression", "assay_type": "in vivo, human", "settings": "for PFS (Independent*) Days / Best Response (Independent*): one line per subject; for PFS (Independent*) Days: censor status in column beside", "key": {"[1]": {"settings": "mantle cell lymphoma patients (N = 2)"}}, "note": "Where “and” joins values, the source holds several entries; their conditions need not be identical. Equal entries are not always repeated.", "from_the_text": "Best response status and progression-free survival (hereinafter referred to as “PFS”) from independent review assessment were used for gene expression analysis.\nBioinformatics and statistical analyses were done for all 24 NHL patients.\nA weighted gene expression score (hereinafter referred to as “WGS”) reflecting the overall expression level for each gene set was generated from logistic regression and Cox proportional hazards models to assess the association with response status (best-response-WGS) and PFS (PFS-WGS), respectively.\nBoth the best-response-WGS as well as the PFS-WGS were in turn used in logistic regression or Cox regression models to assess the association of either WGS with the endpoints. Moreover, the raw best-response WGS was used to compute non-cross validated AUC estimates for responder (CR+PR) and non-responder (SD+PD) classifications."}
{"smiles": "COc1c(OCCCN2CCOCC2)ccc2c1N=C(NC(=O)c1cnc(N)nc1)N1CCN=C21", "note": "[copanlisib]", "values": [{"measurement": "HR for PFS", "setting": "CSTB, median gene expression level as cutoff, p=0.07", "value": "3.3 (0.9-12)"}, {"measurement": "median PFS days", "setting": "CSTB, median gene expression level as cutoff, shorter-PFS group (high expression per text)", "value": 74, "unit": "days"}, {"measurement": "HR for PFS", "setting": "MT2A, median gene expression level as cutoff, p=0.30", "value": "1.3 (0.8-2.2)"}, {"measurement": "PFS", "setting": "NHL patients with low BCR WGS (median cut-off 41.7)", "value": 62, "unit": "days"}, {"measurement": "HR for PFS", "setting": "NOP10, median gene expression level as cutoff, p=0.23", "value": "1.9 (0.7-5.4)"}, {"measurement": "PFS (Independent*) Days", "setting": "diffuse large B-cell lymphoma patients (N = 5)", "value": "56 days and 13 days and 49 days"}, {"measurement": "PFS (Independent*) Days", "setting": "follicular lymphoma patients (N = 10)", "value": "53 days and 74 days and 28 days"}, {"measurement": "Best Response (Independent*)", "setting": "follicular lymphoma patients (N = 10), data cutoff February 2015", "value": "CRu"}, {"measurement": "HR for PFS", "setting": "high vs low BCR WGS, nominal Cox model p<0.0001", "value": 0.035}, {"measurement": "HR for PFS", "setting": "high vs low GPR18 expression, nominal Cox model p<0.01", "value": 0.17}, {"measurement": "Best Response (Independent*)", "setting": "[1]", "value": "CRu"}, {"measurement": "PFS (Independent*) Days", "setting": "[1]", "value": 7, "unit": "days"}, {"measurement": "PFS (Independent*) Days", "setting": "trans. indolent lymphoma patients (N = 2)", "value": "16 days and 42 days"}]}
